# According to patent US20170354645A1, “METHODS FOR TREATING KIDNEY DISORDERS” (Eli Lilly and Company, priority 2014, published 2017):
# Key:
# [1] = serum concentration in remnant kidney mice; format: in vivo; details: 129/SvEv, mouse, week 4 of dosing, 24 hours after a 10 mg/kg oral dose, once daily
# Description: (§1) The oral vehicle for testing the compound of Formula I is 5% Kolliphor® HS 15, 5% EtOH, NaCMC 1%/SLS 0.5%/Antifoam 0.05%/Povidone 0.085% from Ricca Chemical Company. The sham group is fed a conventional diet (Purina Formulab Diet 5008) and is not dosed with vehicle or the compound of Formula I during the dosing portion of the study. One of the remaining two groups is orally dosed vehicle once daily (10 ml/kg), and the other group is orally dosed once daily with the compound of Formula I at 10 mg/kg, in vehicle. Both dosing groups receive a conventional diet (Purina Formulab Diet 5008) during the dosing portion of the study.
# (§2) Spot urine samples are collected on day −7 prior to the dosing portion of the study. Urine samples are taken weekly during the dosing portion of the study. Body weights are measured on days 15, 29, 43, 57, 64, 71, and 78. Blood samples are taken at week 4 of the dosing portion of the study a well as at the study termination (day 84). At week 4 of the dosing portion of the study, the mean serum concentration of the compound of Formula I 24 hours after a 10 mg/kg dose is 49±66 ng/ml.
# [2] = test system: mouse remnant kidney model; test: mouse remnant kidney model (5/6th nephrectomy) of chronic renal failure; format: in vivo; details: 10 mg/kg orally once daily
# Description: The purpose of this assay is to analyze the compound of Formula I in a mouse chronic renal failure model, and particularly the ability to improve albuminuria and renal histopathological lesions. This assay is known as the mouse remnant kidney model, where following a unilateral nephrectomy, partial surgical removal of approximately ⅓ of the remaining kidney is carried out to replicate chronic renal failure. This model is sometimes also referred to as a “5/6th nephrectomy” model that was originally developed in rat. A description of this model may be found in published US patent application US 2014/0271675 (Qi, et al.) and (Leelahavanichkul, et al. (2010) Kidney Int. 78(11): 1136-1153.
# Thirty-five eight to nine week old mice (strain 129/SvEv from Taconic) are employed in the model, and all have surgeries. A sham group having five mice have surgeries where the kidneys are not removed. The mice in the remaining two groups having fifteen mice each undergo remnant surgery. The surgeries take place approximately three weeks prior to the dosing portion of the study. The dosing portion of the study is 85 days long.
# as §1, §2
# [3] = renal morphology, compared with vehicle treatment
smiles,measurement,setting,value
"Cc1cc(OCc2c(-c3ccccc3OC(F)(F)F)noc2C2CC2)ccc1-c1ccc2c(C(=O)O)csc2c1 [compound of Formula I, 6-{4-[5-Cyclopropyl-3-(2-trifluoromethoxy-phenyl)-isoxazol-4-ylmethoxy]-2-methyl-phenyl}-benzo[b]thiophene-3-carboxylic acid]",concentration at 24 h,[1],49 ± 66 ng/mL
same,reduction in urine ACR (albumin/creatinine ratio),"[2]; remnant mice, observed within 2 weeks, persists through end of 85-day dosing",32-38%
same,interstitial inflammation,[2]; renal morphology,mildly reduced
same,tubular regeneration,[2]; renal morphology,mildly reduced
same,incidence and severity of glumerulosclerosis,[2]; [3],notably reduced
same,incidence and severity of tubular protein,[2]; [3],notably reduced
same,"incidence of tubular changes (dilation, atrophy)",[2]; [3],reduced
